Results on nine compounds are retold here after patent US8519149B2, “Tricyclic compounds as mPGES-1 inhibitors” (Glenmark Pharmaceuticals S.A., priority 2010, dated 2013).

This test deals with T1, Recombinant human mPGES-1 (Homo sapiens, UniProt O14684).
T1 sequence (O14684 1-152): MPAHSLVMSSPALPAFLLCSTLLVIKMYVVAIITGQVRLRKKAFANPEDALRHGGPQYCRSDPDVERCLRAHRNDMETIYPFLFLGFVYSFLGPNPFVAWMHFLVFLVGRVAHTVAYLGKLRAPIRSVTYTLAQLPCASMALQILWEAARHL
Nature of the test: In-vitro mPGES-1 enzyme inhibition assay (PGE2 formation from PGH2, HTRF detection). The format is biochemical. As to conditions: for inhibition at 1 µM: 1 μM test compound, read-out: Percentage inhibition at 1 μM; for inhibition at 1 µM / inhibition at 10 µM: recombinant human mPGES-1 microsomal fraction; for inhibition at 10 µM: 10 μM test compound, read-out: Percentage inhibition at 10 μM; for IC50: class symbols, selected examples. The method, boiled down:
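Crude microsomal fractions containing recombinant human mPGES-1 (40-60 μg/mL protein) convert PGH2 to PGE2 in the presence of reduced glutathione, with 0.5% final DMSO. Reaction stopped with stannous chloride, and PGE2 measured by anti-PGE2 antibody (HTRF) detection. IC50 by nonlinear regression of % inhibition versus uninhibited enzyme control.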
For orientation: In TR-FRET formats the signal depends on donor and acceptor labels being close together.

By inhibition is commonly meant the drop in the measured response relative to a control, in per cent. One may read the IC50 as the point on the concentration scale where inhibition reaches its midpoint. Turning to `Cc1nc2c(o1)c(C(=O)Nc1cc(C(F)(F)F)ccc1F)cc1nc(Nc3c(F)cccc3Cl)[nH]c12` [Example-186, 7-((2-Chloro-6-fluorophenyl)amino)-N-(2-fluoro-5-(trifluoromethyl)phenyl)-2-methyl-8H-imidazol[4′,5′:5,6]-benzo[1,2-d]oxazole-4-carboxamide], the inhibition at 1 µM turned out to be 98.6%, the inhibition at 10 µM came to 98.5% and the concentration for half-maximal inhibition (IC50) was < 50 nM.

Regarding `Cc1nc2c(o1)c(C(=O)Nc1ccc(F)c(C(F)(F)F)c1)cc1nc(Nc3c(F)cccc3Cl)[nH]c12` [Example-187, 7-((2-Chloro-6-fluorophenyl)amino)-N-(4-fluoro-3-(trifluoromethyl)phenyl)-2-methyl-8H-imidazo[4′,5′:5,6]benzo[1,2-d]oxazole-4-carboxamide], the inhibition at 1 µM is 95.8%, the inhibition at 10 µM came to 83% and the IC50 was < 50 nM.

Turning to `Cc1nc2c(o1)c(C(=O)NCc1ccccc1C(F)(F)F)cc1nc(Nc3c(Cl)cccc3Cl)[nH]c12` [Example-188, 7-[(2,6-Dichlorophenyl)amino]-2-methyl-N-[2-(trifluoromethyl)benzyl]-8H-imidazo[4,5-e][1,3]benzoxazole-4-carboxamide], the inhibition at 1 µM was 98.1%, the inhibition at 10 µM was found to be 99.4% and the IC50 was 50 to 100 nM.

As to `Cc1nc2c(o1)c(C(=O)NC1CCC(F)(F)CC1)cc1nc(Nc3c(Cl)cccc3Cl)[nH]c12` [Example-189, 7-[(2,6-Dichlorophenyl)amino]-N-(4,4-difluorocyclohexyl)-2-methyl-8H-imidazo[4,5-e][1,3]benzoxazole-4-carboxamide], the inhibition at 1 µM came out at 53.9% and the inhibition at 10 µM was 91.1%.

With `Cc1nc2c(o1)c(C(=O)Nc1ccc(C(C)(C)C#N)cc1)cc1nc(Nc3c(Cl)cccc3Cl)[nH]c12` [Example-190, N-[4-(2-Cyanopropan-2-yl)phenyl]-7-[(2,6-dichlorophenyl)amino]-2-methyl-8H-imidazo[4,5-e][1,3]benzoxazole-4-carboxamide], the inhibition at 1 µM worked out at 81.2%, the inhibition at 10 µM stood at 89.5% and the IC50 is > 100 nM.

For `CC1(C)Cc2c(c(C(=O)Nc3ccc(C(F)(F)F)nc3)cc3nc(Nc4c(F)cccc4Cl)[nH]c23)O1` [Example-191, 2-((2-Chloro-6-fluorophenyl)amino)-7,7-dimethyl-N-(6-(trifluoromethyl)pyridin-3-yl)-7,8-dihydro-1H-benzofuro[4,5-d]imidazole-5-carboxamide], the inhibition at 1 µM turned out to be 96.1%, the inhibition at 10 µM was 96.3% and the IC50 is < 50 nM.

`Cc1cccc(Cl)c1Nc1nc2cc(C(=O)Nc3cc(F)c(F)cc3F)c3c(c2[nH]1)CC(C)(C)O3` [Example-192, 2-((2-Chloro-6-methylphenyl)amino)-7,7-dimethyl-N-(2,4,5-trifluorophenyl)-7,8-dihydro-1H-benzofuro[4,5-d]imidazole-5-carboxamide]: the inhibition at 1 µM is 97.1%, the inhibition at 10 µM was found to be 96.5% and the half-inhibitory concentration (IC50) was < 50 nM.

With `CC1(C)Cc2c(c(C(=O)Nc3cc(F)c(F)cc3F)cc3nc(Nc4c(F)cccc4Cl)[nH]c23)O1` [Example-193, 2-((2-Chloro-6-fluorophenyl)amino)-7,7-dimethyl-N-(2,4,5-trifluorophenyl)-7,8-dihydro-1H-benzofuro[4,5-d]imidazole-5-carboxamide], the inhibition at 1 µM is 96.4%, the inhibition at 10 µM was found to be 94.7% and the half-inhibitory concentration (IC50) is < 50 nM.

As to `CC1(C)Cc2c(c(C(=O)Nc3ccc(C(F)(F)F)cc3F)cc3nc(Nc4c(Cl)cncc4Cl)[nH]c23)O1` [Example-194, 2-((3,5-Dichloropyridin-4-yl)amino)-N-(2-fluoro-4-(trifluoromethyl)phenyl)-7,7-dimethyl-7,8-dihydro-1H-benzofuro[4,5-d]imidazole-5-carboxamide], the inhibition at 1 µM stood at 99.2% and the inhibition at 10 µM amounted to 100%.
